Test system: tumor tissues in human lung cancer cell line Calu-6 tumor-bearing mice
Assay: Example 8: immunochemical staining of iNOS, macrophage (F4/80) and nitrotyrosine in Calu-6 tumor tissue
Format: in vivo, nude mice
Source text: The dose of FK330 is expressed in terms of the weight of a simple substance (non-hydrate). A paclitaxel injectable preparation (paclitaxel injection liquid “Sawai”) was purchased from Sawai Pharmaceutical Co., Ltd., and was used as paclitaxel. Rat anti-mouse F4/80 antigen monoclonal antibody, rabbit anti-iNOS polyclonal antibody, and rabbit anti-nitrotyrosine antibody were respectively purchased from AbD Serotec (Oxford, UK), Santa Cruz Biotechnology, Inc. (Santa Cruz, Calif., US), and Millipore Corp. (Billerica, Mass., USA) and used.
FK330 was suspended (20 mg/mL) in a 0.5% aqueous methyl cellulose solution (0.5% MC) and orally administered. Paclitaxel was prepared with physiological saline for injection (Otsuka Pharmaceutical Group) to a concentration of 1 mg/mL at the time of use.
Human lung cancer-derived Calu-6 (HTB-56) was obtained from American Type
Culture Collection (VA, USA). The cells were cultured under the conditions of 37° C. and 5% CO2 by using RPMI1640 medium containing 10% heat-inactivated fetal bovine serum (FBS). The cells were harvested with trypsin and were suspended in PBS at 6×10^7 cells/mL, and the suspension was mixed with an equal amount of Matrigel (trade name) Basement Membrane Matrix (manufactured by Becton Dickinson Co., Bedford, Mass., USA).
Five-week old male nude mice (CAnN Cg-Foxn1nu/CrlCrlj(nu/nu)) were purchased from Charles River Laboratories Japan, Inc. (Japan, Kanagawa). The animals were raised under specific pathogen-free (SPF) conditions throughout the test period by feeding standard feedstuff and drinking water. The cultured cells were subcutaneously inoculated into the dorsal region of the nude mice at a concentration of 3×10^6 cells/0.1 mL/mouse. Nude mice which had the tumor volumes (major axis×[minor axis]^2×0.5) ranging from 136.8 mm^3 to 248.5 mm^3 were assigned by using SAS to minimize the fluctuation in the tumor volume between the groups and within the group.
Drug administration was initiated from the first day of administration (Day 0). The respective groups (n=5) were treated as follows. FK330 was orally gavaged in an amount of 5 mL/kg from Day 0 to Day 6, and paclitaxel was intravenously administered through the tail vein in an amount of 10 mL/kg from Day 0 to Day 5.
FK330 single administration group: FK330 100 mg/kg bid (200 mg/kg/day, from Day 0 to Day 6)
Paclitaxel single administration group: Paclitaxel 10 mg/kg/day (from Day 0 to Day 5)
Combined use group: FK330 100 mg/kg bid (200 mg/kg/day, from Day 0 to Day 6)+paclitaxel 10 mg/kg/day (from Day 0 to Day 5)
FK330 was orally gavaged (5 mL/kg) twice a day at an interval of 6 to 8 hours. Paclitaxel was administered by intravenous bolus injection (10 mL/kg) through the tail vein 1 to 4 hours after the administration of FK330.
On Day 6, the tumor tissues were harvested from the mice. Immersion fixation was carried out at 4° C. for 12 hours with a 4% para-formaldehyde-phosphate buffer solution (Wako Pure Chemical Industries, Ltd.). After the tissue fixation, according to the conventional method, sucrose replacement was carried out using 10%, 15% and 20% sucrose/phosphate buffer solutions in a stepwise manner at 4° C. After completion of the replacement, the cancer tissues were embedded in O.C.T. Compound (Toronto Research Chemicals, Inc., Toronto, Canada), and frozen blocks were prepared with dry ice/acetone and stored at −80° C.
Frozen sections at 5 μm thickness were prepared by a cryostat (Sakura Finetech Japan Co., Ltd.) and were air-dried. The dried frozen sections were washed with a 4% para-formaldehyde-phosphate buffer solution, and then in order to inactivate the endogenous peroxidase activity, the sections were treated for 30 minutes with 0.3% hydrogen peroxide/methanol. Mouse macrophage, iNOS and nitrotyrosine staining was carried out by the following procedure. In regard to the iNOS and nitrotyrosine staining, antigen retrieval was carried out by microwave irradiation (3 minutes/500 W) before the immunochemical staining. […]

[1] = combined use: FK330 100 mg/kg bid p.o. Day 0 to Day 6 + paclitaxel 10 mg/kg/day, Day 6
[2] = paclitaxel 10 mg/kg/day i.v. Day 0 to Day 5 alone, tumor harvested Day 6

Row | SMILES | iNOS protein expression in the tumor [1] | macrophage infiltration in the tumor [1] | nitrotyrosine production in the tumor [1] | amount of nitrotyrosine (major end-product of NO) in the tumor tissue [2] | iNOS protein expression in the tumor tissue [2] | infiltration of macrophages (F4/80) in the tumor tissue [2]
1 | O=C(/C=C/c1ccc(Cl)cc1)N[C@@H](Cc1ccccn1)C(=O)NCC(=O)N1CCC(Oc2cc(C(F)(F)F)ncn2)CC1 [FK330, N^2-[(2E)-3-(4-chlorophenyl)-2-propenoyl]-N-[2-oxo-2-(4-{[6-(trifluoromethyl)pyrimidin-4-yl]oxy}piperidin-1-yl)ethyl]-3-pyridin-2-yl-L-alaninamide] | did not affect | did not affect | suppressed |  |  | 
2 | CC(=O)O[C@H]1C(=O)[C@@]2(C)[C@H]([C@H](OC(=O)c3ccccc3)[C@]3(O)C[C@H](OC(=O)[C@H](O)[C@@H](NC(=O)c4ccccc4)c4ccccc4)C(C)=C1C3(C)C)[C@]1(OC(C)=O)CO[C@@H]1C[C@@H]2O [paclitaxel, reference compound] |  |  |  | increased | very clearly accentuated | clearly recognized
